What was measured:
Test in all cases: KINOMEscan competition binding
Conditions in all cases: compound 10.0 µM
ADCK3 (human) = ADCK3 (human) (UniProt Q8NI60)
NUAK1 (human) = NUAK1 (human) (UniProt O60285)
MYLK4 (human) = MYLK4 (human) (UniProt Q86YV6)
TEC (human) = TEC (human) (UniProt P42680)
AKT2 (human) = AKT2 (human) (UniProt P31751)
OXSR1 (human) = OXSR1 (human) (UniProt O95747)
DAPK2 (human) = DAPK2 (human) (UniProt Q9UIK4)
[1] = tested on: BMX (human), P51813 [V600E]
PRKX (human) = PRKX (human) (UniProt P51817)
TNNI3K (human) = TNNI3K (human) (UniProt Q59H18)
IRAK1 (human) = IRAK1 (human) (UniProt P51617)
PRKCD (human) = PRKCD (human) (UniProt Q05655)
NEK7 (human) = NEK7 (human) (UniProt Q8TDX7)
TGFBR1 (human) = TGFBR1 (human) (UniProt P36897)
MAST1 (human) = MAST1 (human) (UniProt Q9Y2H9)
CSK (human) = CSK (human) (UniProt P41240)
LATS1 (human) = LATS1 (human) (UniProt O95835)
IRAK3 (human) = IRAK3 (human) (UniProt Q9Y616)
MAP3K4 (human) = MAP3K4 (human) (UniProt Q9Y6R4)
PRKCE (human) = PRKCE (human) (UniProt Q02156)
PRKCQ (human) = PRKCQ (human) (UniProt Q04759)
LYN (human) = LYN (human) (UniProt P07948)
PRKAA2 (human) = PRKAA2 (human) (UniProt P54646)
MAPKAPK5 (human) = MAPKAPK5 (human) (UniProt Q8IW41)
TNK1 (human) = TNK1 (human) (UniProt Q13470)
LATS2 (human) = LATS2 (human) (UniProt Q9NRM7)
STK25 (human) = STK25 (human) (UniProt O00506)
SRMS (human) = SRMS (human) (UniProt Q9H3Y6)
[2] = target: JAK1 JH2 pseudokinase (human) (UniProt P23458)
SRPK1 (human) = SRPK1 (human) (UniProt Q96SB4)
STK38L (human) = STK38L (human) (UniProt Q9Y2H1)
PRKG2 (human) = PRKG2 (human) (UniProt Q13237)
RIPK4 (human) = RIPK4 (human) (UniProt P57078)
MAP3K11 (human) = MAP3K11 (human) (UniProt Q16584)
PRKD3 (human) = PRKD3 (human) (UniProt O94806)
ACVR2A (human) = ACVR2A (human) (UniProt P27037)
PIK3CD (human) = PIK3CD (human) (UniProt O00329)
MAPK7 (human) = MAPK7 (human) (UniProt Q13164)
CDK4 CCND1 (human) = CDK4 CCND1 (human) (UniProt P11802+P24385)
NEK3 (human) = NEK3 (human) (UniProt P51956)

ADCK3 (human), sequence (Q8NI60 whole entry, looked up): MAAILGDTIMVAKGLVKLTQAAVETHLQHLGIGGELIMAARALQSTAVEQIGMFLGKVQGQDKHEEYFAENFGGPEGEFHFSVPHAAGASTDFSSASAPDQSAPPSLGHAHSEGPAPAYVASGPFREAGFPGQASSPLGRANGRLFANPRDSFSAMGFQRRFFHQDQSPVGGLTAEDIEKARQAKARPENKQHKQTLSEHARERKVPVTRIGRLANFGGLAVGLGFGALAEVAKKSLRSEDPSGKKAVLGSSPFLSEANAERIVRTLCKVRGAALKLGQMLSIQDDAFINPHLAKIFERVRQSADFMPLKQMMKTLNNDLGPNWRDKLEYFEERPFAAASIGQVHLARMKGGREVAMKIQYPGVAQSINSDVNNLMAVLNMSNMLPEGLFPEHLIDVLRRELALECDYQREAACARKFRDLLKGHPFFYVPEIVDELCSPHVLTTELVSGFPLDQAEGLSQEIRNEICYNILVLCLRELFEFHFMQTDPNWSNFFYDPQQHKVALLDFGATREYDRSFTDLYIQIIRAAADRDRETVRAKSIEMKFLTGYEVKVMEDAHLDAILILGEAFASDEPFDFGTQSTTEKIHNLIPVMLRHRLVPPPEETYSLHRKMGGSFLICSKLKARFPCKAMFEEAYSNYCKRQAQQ
NEK7 (human), sequence (Q8TDX7 whole entry, looked up): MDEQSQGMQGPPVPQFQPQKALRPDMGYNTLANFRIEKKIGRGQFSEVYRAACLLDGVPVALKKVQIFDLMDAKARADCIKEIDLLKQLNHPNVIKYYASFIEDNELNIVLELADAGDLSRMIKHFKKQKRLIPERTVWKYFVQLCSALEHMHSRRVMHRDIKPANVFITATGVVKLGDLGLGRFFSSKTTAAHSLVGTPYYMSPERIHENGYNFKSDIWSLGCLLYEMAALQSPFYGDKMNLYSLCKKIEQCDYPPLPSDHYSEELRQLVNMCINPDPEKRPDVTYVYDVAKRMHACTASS
PRKCE (human), sequence (Q02156 whole entry, looked up): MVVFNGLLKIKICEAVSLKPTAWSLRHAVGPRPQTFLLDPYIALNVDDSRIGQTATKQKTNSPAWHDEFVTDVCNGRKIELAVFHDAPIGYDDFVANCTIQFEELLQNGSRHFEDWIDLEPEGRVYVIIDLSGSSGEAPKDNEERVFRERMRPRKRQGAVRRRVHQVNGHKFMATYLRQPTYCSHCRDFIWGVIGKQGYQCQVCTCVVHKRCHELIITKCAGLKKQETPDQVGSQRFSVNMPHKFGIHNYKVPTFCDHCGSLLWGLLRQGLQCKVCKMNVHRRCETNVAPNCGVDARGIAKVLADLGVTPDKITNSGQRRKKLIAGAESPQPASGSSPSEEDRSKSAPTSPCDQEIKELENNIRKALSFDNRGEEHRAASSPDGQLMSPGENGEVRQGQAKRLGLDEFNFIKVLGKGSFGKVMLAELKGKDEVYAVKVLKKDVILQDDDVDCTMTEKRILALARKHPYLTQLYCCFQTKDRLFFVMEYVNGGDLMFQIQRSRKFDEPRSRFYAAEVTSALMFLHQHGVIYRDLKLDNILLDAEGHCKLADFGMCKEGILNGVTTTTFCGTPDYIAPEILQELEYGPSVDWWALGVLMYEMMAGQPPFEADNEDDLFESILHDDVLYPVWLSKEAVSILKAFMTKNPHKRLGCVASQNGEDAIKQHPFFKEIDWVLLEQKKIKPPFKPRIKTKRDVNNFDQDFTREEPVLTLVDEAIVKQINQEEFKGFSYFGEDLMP
LATS1 (human), sequence (O95835 whole entry, looked up): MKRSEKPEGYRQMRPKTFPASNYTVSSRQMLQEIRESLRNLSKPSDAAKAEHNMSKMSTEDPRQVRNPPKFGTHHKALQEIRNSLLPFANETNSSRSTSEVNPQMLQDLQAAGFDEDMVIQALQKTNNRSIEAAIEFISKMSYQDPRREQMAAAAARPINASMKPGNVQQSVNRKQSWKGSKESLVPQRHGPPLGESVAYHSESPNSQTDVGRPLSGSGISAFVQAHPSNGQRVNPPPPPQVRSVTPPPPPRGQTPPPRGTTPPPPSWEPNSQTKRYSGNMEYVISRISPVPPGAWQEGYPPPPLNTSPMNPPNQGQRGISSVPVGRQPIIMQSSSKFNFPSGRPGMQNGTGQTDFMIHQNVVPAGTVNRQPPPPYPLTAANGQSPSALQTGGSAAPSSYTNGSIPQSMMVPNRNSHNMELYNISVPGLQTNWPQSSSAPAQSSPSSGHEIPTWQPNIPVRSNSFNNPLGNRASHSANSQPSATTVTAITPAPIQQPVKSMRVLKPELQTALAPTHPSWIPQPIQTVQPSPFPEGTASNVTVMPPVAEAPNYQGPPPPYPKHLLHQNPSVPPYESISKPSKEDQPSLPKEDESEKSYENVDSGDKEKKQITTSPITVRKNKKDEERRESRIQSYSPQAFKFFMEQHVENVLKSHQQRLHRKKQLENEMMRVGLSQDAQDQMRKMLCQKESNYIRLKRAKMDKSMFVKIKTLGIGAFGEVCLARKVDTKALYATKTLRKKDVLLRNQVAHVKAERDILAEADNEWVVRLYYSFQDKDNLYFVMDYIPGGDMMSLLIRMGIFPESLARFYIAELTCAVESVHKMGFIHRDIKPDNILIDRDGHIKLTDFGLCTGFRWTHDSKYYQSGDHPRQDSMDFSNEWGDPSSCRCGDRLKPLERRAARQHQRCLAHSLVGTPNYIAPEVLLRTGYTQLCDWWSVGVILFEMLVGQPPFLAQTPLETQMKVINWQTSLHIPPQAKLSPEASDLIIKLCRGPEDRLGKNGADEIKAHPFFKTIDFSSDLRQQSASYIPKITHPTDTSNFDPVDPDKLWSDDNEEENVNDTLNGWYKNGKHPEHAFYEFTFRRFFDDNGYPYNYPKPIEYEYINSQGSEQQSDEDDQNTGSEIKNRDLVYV
RIPK4 (human), sequence (P57078 whole entry, looked up): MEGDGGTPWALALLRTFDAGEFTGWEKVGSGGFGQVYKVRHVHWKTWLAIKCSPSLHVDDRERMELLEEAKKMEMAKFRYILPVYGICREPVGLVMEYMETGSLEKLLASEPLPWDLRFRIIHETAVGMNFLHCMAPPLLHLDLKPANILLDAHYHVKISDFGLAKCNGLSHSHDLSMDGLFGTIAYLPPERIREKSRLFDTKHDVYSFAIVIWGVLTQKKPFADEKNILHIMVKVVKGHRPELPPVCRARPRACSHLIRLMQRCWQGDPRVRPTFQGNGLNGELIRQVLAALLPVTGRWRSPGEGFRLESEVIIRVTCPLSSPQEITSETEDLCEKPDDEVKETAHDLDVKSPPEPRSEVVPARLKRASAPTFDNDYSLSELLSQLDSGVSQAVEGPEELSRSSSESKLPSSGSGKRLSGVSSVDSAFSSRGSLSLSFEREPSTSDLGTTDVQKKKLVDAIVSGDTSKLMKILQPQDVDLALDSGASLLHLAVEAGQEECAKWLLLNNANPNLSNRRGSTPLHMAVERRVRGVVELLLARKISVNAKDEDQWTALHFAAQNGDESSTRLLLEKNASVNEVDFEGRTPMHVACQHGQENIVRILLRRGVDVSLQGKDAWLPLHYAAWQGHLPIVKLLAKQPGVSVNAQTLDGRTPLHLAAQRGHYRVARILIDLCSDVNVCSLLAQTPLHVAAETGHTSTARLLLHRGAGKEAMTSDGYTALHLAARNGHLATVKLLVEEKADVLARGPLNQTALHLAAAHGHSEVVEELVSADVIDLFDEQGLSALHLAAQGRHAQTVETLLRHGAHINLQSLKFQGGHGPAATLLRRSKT
TEC (human), sequence (P42680 whole entry, looked up): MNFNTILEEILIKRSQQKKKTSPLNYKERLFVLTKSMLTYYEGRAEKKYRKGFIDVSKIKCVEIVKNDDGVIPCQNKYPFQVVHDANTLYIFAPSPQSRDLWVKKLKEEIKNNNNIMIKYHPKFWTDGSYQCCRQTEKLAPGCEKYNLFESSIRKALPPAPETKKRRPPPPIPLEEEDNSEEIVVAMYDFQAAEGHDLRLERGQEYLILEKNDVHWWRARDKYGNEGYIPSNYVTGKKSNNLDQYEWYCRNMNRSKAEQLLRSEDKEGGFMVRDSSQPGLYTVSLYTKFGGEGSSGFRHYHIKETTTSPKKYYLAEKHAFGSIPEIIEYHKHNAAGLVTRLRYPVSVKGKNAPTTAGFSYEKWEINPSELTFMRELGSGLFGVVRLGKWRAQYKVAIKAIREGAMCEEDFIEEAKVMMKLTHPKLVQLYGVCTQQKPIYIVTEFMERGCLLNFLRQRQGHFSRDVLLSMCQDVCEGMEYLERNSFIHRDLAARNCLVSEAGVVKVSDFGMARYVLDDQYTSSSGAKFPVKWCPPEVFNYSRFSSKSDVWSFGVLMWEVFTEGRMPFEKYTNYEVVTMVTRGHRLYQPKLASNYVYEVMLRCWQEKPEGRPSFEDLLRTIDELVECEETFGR
PRKAA2 (human), sequence (P54646 whole entry, looked up): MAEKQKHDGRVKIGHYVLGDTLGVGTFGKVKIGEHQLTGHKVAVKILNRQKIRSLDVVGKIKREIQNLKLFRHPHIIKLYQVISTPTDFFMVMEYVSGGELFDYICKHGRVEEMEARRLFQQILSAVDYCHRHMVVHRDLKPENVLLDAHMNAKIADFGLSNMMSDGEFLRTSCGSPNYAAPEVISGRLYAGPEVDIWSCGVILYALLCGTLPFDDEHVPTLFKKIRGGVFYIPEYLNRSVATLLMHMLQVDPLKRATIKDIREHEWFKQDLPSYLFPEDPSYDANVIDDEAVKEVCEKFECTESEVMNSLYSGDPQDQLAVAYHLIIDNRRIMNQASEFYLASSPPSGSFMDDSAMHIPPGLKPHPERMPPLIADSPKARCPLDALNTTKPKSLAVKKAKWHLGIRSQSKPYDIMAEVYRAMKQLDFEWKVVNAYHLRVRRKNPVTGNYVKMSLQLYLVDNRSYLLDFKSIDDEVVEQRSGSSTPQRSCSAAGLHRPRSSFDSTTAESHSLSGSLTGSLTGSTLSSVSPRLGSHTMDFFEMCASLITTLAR

SMILES | kinase still bound, per cent of control (ADCK3 (human)) | kinase still bound, per cent of control (NUAK1 (human)) | kinase still bound, per cent of control (MYLK4 (human)) | kinase still bound, per cent of control (TEC (human)) | kinase still bound, per cent of control (DAPK2 (human)) | kinase still bound, per cent of control (PRKX (human)) | kinase still bound, per cent of control (TNNI3K (human)) | kinase still bound, per cent of control (PRKCD (human)) | kinase still bound, per cent of control (NEK7 (human)) | kinase still bound, per cent of control (CSK (human)) | kinase still bound, per cent of control (IRAK3 (human)) | kinase still bound, per cent of control (PRKCE (human)) | kinase still bound, per cent of control (PRKCQ (human)) | kinase still bound, per cent of control (PRKAA2 (human)) | kinase still bound, per cent of control (TNK1 (human)) | kinase still bound, per cent of control (LATS2 (human)) | kinase still bound, per cent of control (STK25 (human)) | kinase still bound, per cent of control (SRMS (human)) | kinase still bound, per cent of control (PRKG2 (human)) | kinase still bound, per cent of control (RIPK4 (human)) | other results
Cc1cn(-c2cc(C(=O)Nc3ccc(C)c(NC(=O)c4ccno4)c3)cc(C(F)(F)F)c2)cn1 | 100% | 100% | 100% | 100% | 100% | 100% | 29% | 100% | 100% | 29% | 100% | 100% | 100% | 100% | 100% | 100% | 100% | 26% | 100% | 100% | kinase still bound, per cent of control (AKT2 (human)): 100%; kinase still bound, per cent of control (OXSR1 (human)): 100%; kinase still bound, per cent of control [1]: 1.3%; kinase still bound, per cent of control (IRAK1 (human)): 100%; kinase still bound, per cent of control (TGFBR1 (human)): 100%; kinase still bound, per cent of control (MAST1 (human)): 100%; kinase still bound, per cent of control (LATS1 (human)): 100%; kinase still bound, per cent of control (MAP3K4 (human)): 100%; kinase still bound, per cent of control (LYN (human)): 4.8%; kinase still bound, per cent of control (MAPKAPK5 (human)): 100%; kinase still bound, per cent of control [2]: 100%; kinase still bound, per cent of control (SRPK1 (human)): 100%; kinase still bound, per cent of control (STK38L (human)): 100%; kinase still bound, per cent of control (MAP3K11 (human)): 100%; kinase still bound, per cent of control (PRKD3 (human)): 100%; kinase still bound, per cent of control (ACVR2A (human)): 100%; kinase still bound, per cent of control (PIK3CD (human)): 100%; kinase still bound, per cent of control (MAPK7 (human)): 100%
COc1cc(N2CCC(C(N)=O)CC2)ccc1Nc1nc(N)c(Cl)c(Nc2ccccc2S(=O)(=O)C(C)C)n1 | 0.1% | 100% | 100% | 100% | 100% | 100% | 100% | 100% | 100% | 100% | 29% | 100% | 100% | 100% | 3.8% | 100% | 100% | 7.3% | 100% | 100% | kinase still bound, per cent of control (AKT2 (human)): 100%; kinase still bound, per cent of control [1]: 100%; kinase still bound, per cent of control (TGFBR1 (human)): 100%; kinase still bound, per cent of control (LATS1 (human)): 100%; kinase still bound, per cent of control (MAP3K4 (human)): 100%; kinase still bound, per cent of control (LYN (human)): 100%; kinase still bound, per cent of control (MAPKAPK5 (human)): 100%; kinase still bound, per cent of control [2]: 100%; kinase still bound, per cent of control (SRPK1 (human)): 100%; kinase still bound, per cent of control (STK38L (human)): 100%; kinase still bound, per cent of control (MAP3K11 (human)): 100%; kinase still bound, per cent of control (PRKD3 (human)): 100%; kinase still bound, per cent of control (ACVR2A (human)): 100%; kinase still bound, per cent of control (PIK3CD (human)): 100%; kinase still bound, per cent of control (MAPK7 (human)): 100%
CCOc1cc(N2CCC(O)CC2)ccc1Nc1ncc2c(n1)N(C)c1ccccc1C(=O)N2C | 100% | 100% | 100% | 100% | 100% | 100% | 100% | 100% | 100% | 100% | 100% | 100% | 100% | 100% | 7.8% | 100% | 100% | 100% | 100% | 100% | kinase still bound, per cent of control (AKT2 (human)): 100%; kinase still bound, per cent of control (OXSR1 (human)): 100%; kinase still bound, per cent of control [1]: 100%; kinase still bound, per cent of control (IRAK1 (human)): 100%; kinase still bound, per cent of control (TGFBR1 (human)): 100%; kinase still bound, per cent of control (MAST1 (human)): 100%; kinase still bound, per cent of control (LATS1 (human)): 100%; kinase still bound, per cent of control (MAP3K4 (human)): 100%; kinase still bound, per cent of control (LYN (human)): 100%; kinase still bound, per cent of control (MAPKAPK5 (human)): 100%; kinase still bound, per cent of control [2]: 100%; kinase still bound, per cent of control (SRPK1 (human)): 100%; kinase still bound, per cent of control (STK38L (human)): 100%; kinase still bound, per cent of control (MAP3K11 (human)): 100%; kinase still bound, per cent of control (PRKD3 (human)): 100%; kinase still bound, per cent of control (ACVR2A (human)): 100%; kinase still bound, per cent of control (PIK3CD (human)): 100%; kinase still bound, per cent of control (MAPK7 (human)): 0%
CC(=O)c1c(C)c2cnc(Nc3ccc(N4CCNCC4)cn3)nc2n(C2CCCC2)c1=O | 63% | 48% | 35% | 98% | 2.4% | 90% | 98% | 90% | 60% | 90% | 36% | 67% | 68% | 40% | 61% | 42% | 34% | 49% | 65% | 79% | kinase still bound, per cent of control (OXSR1 (human)): 81%; kinase still bound, per cent of control (IRAK1 (human)): 0.85%; kinase still bound, per cent of control (MAST1 (human)): 5%; kinase still bound, per cent of control (CDK4 CCND1 (human)): 0%; kinase still bound, per cent of control (NEK3 (human)): 100%; kinase still bound, per cent of control (PRKD3 (human)): 0.75%; kinase still bound, per cent of control (PIK3CD (human)): 28%; kinase still bound, per cent of control (MAPK7 (human)): 0.65%

— the kinase profiling compilation of Christmann-Franck et al. (2016)
